{
  "source": "patent US6251950A",
  "about": "“Aliphatic propargylamines as cellular rescue agents” (University of Saskatchewan, priority 1998, dated 2001)",
  "key": {"[1]": {"tested_on": "neurons", "conditions": "cited from earlier work"}, "[2]": {"tested_on": "HSP70", "assay": "Kainate-induced HSP70 expression in hippocampal CA1 field", "assay_type": "in vivo, rat", "conditions": "kainate 10 mg/Kg i.p.; 24 h; mean ± sem (n = 5)", "experimental": "(§1) The levels of both proteins were measured 24 h after a single injection of kainate (10 mg/Kg,i.p). The levels (assessed by quantitative immunohistochemical imaging) can be seen in Table 5.\n(§2) Values are means ± sem (n = 5)\n(§3) Kainate (10 mg/Kg, i.p.); Rats with seizures between stages IV severe to V\n(§4) severe were used. R-2HPA (0.25 mg/Kg, s.c.) was administered 4 h after\n(§5) kainate injection; HSP70 and c-Fos expression were assessed 24 h after\n(§6) kainate treatment (for details of method please see Zhang et al, 1996).\n(§7) Statistics were performed using ANOVA followed by Newman-Keuls multiple"}, "[3]": {"tested_on": "c-Fos", "assay": "Kainate-induced delayed c-Fos expression in hippocampal CA1 field", "assay_type": "in vivo, rat", "conditions": "kainate 10 mg/Kg i.p.; 24 h; mean ± sem (n = 5)", "experimental": "as §1, §2, §3, §4, §5, §6, §7"}, "[4]": {"conditions": "low concentrations; cited from earlier work"}, "[5]": {"tested_on": "SOD1 mRNA, PC12 cells", "conditions": "Li, et al., 1995; cited from earlier work"}},
  "data": [
    {"compound": "C#CCNC1CCc2ccccc21", "note": "(stereo not drawn) [N-propargyl-1-aminoindan]", "values": [
      {"measurement": "in vitro neuronal survival after glutamate toxicity", "setting": "[1]", "result": "effective in enhancing the in vitro neuronal survival"}
    ]},
    {"compound": "C=C(C)[C@H]1CN[C@H](C(=O)O)[C@H]1CC(=O)O", "note": "[Kainate, kainic acid]", "values": [
      {"measurement": "HSP70 (Kainate alone)", "setting": "[2]", "result": "10.8 ± 3.1"},
      {"measurement": "Delayed c-Fos (Kainate alone)", "setting": "[3]", "result": "18.0 ± 4.5"}
    ]},
    {"compound": "CN[C@@H](C)Cc1ccccc1", "note": "[methamphetamine]", "values": [
      {"measurement": "neurotoxicity", "setting": "[4]", "result": "neurotoxic even at quite low concentrations"}
    ]},
    {"compound": "CC(N)Cc1ccccc1", "note": "(stereo not drawn) [amphetamine]", "values": [
      {"measurement": "neurotoxicity", "setting": "[4]", "result": "neurotoxic even at quite low concentrations"}
    ]},
    {"compound": "NGF: NGF", "values": [
      {"measurement": "SOD1 mRNA induction (previous findings)", "setting": "[5]", "result": "can induce SOD1 mRNA in a dose dependent manner"}
    ]}
  ]
}
